Test results published in patent US20260240171A1, “BACTERICIDAL COMPOSITION COMPRISING BACILLUS VELEZENSIS TCS001 AND USE THEREOF” (priority 2023, published 2026).

What was measured:
[1] = tested on: Bacillus velezensis TCS001; test: Affinity screening of Bacillus velezensis TCS001 and boscalid; type: cell-based; conditions: boscalid concentration 400 mg/L in LB plates, 28° C.
Experimental: Preparation of Bacillus velezensis TCS001 seed culture: 1,000 mL of LB solid medium (27 mL×30 vials) and 150 mL of LB liquid medium were prepared and sterilized; a single colony of Bacillus velezensis TCS001 was inoculated into the LB liquid medium and cultured in a shaker at 25° C., 164 rpm, for 16 h.
Preparation of toxin-containing medium: technical grade boscalid was dissolved in DMF to prepare a 10% stock solution for later use, which was diluted with sterile water containing 1%. Tween-80 to 10 times the test dose; 3 mL of the agent solution was sequentially pipetted from low concentration to high concentration, added to 27 mL of LB medium, thoroughly shaken, and equally poured into two culture dishes with a diameter of 9 cm to prepare agent-containing plates at corresponding concentrations. Each treatment had 2 replicates.
Affinity screening: the shaken Bacillus velezensis TCS001 seed culture was diluted to 1×10^6 CFU/mL; 40 μL was pipetted and spread onto the agent-containing plates and the control group plates, and incubated in a dark incubator at 28° C. The growth status of TCS001 was observed.

[2] = tested on: strawberry gray mold-causing pathogen; test: Indoor toxicity determination against strawberry gray mold on strawberry fruits; type: in vivo; conditions: after 4 days
Experimental: Bacillus velezensis TCS001, boscalid, and a mixture of Bacillus velezensis TCS001 and boscalid were diluted to the test doses. Healthy strawberry fruits were used as the test material. The strawberry fruits were immersed in the agent solution for 20 s. Each treatment had 3 replicates, with 9 fruits per replicate, and all fruits were uniformly punctured to a size of 5 mm×5 mm. A spore suspension of strawberry gray mold-causing pathogen at 1*10^5 spores/mL was prepared. After 24 h, the strawberry fruits treated with the agent solution were surface-sprayed with the spore suspension of strawberry gray mold-causing pathogen for inoculation. The strawberry fruits were placed in a high-humidity environment (RH 90-95%) and cultured at a constant temperature of 22° C. After 4 days, the lesion diameter was measured, and the inhibition rate (%) was calculated.
Inhibition rate (%)=(Diameter of colony in blank control−Diameter of colony in treatment)/Diameter of colony in blank control×100.
[formula] • X: inhibition rate of A at a dose of P; • Y: inhibition rate of B at a dose of Q; • E0: theoretical inhibition rate of A+B at a dose of (P+Q); and • E: actual inhibition rate of each treatment.
The Colby method was used to evaluate the synergistic effect of the combination. When E−E0>5%, a synergistic effect was indicated; when E−E0<−5%, an antagonistic effect was indicated; when the value of E−E0 was within ±5%, an additive effect was indicated.

## O=C(Nc1ccccc1-c1ccc(Cl)cc1)c1cccnc1Cl [Boscalid]
[1]
  colony count of Bacillus velezensis TCS001: comparable to that of the blank control
[2]; 10 mg/L
  Lesion Diameter: 1.77 cm
[2]; 12.5 mg/L
  Lesion Diameter: 1.73 cm
[2]; 16 mg/L
  Lesion Diameter: 1.66 cm
[2]; 25 mg/L
  Lesion Diameter: 1.14 cm
[2]; 33 mg/L
  Lesion Diameter: 1.04 cm
[2]; 50 mg/L
  Lesion Diameter: 0.99 cm
[2]; 100 mg/L
  Lesion Diameter: 0.85 cm
[2]; 160 mg/L
  Lesion Diameter: 0.56 cm
[2]; 96 h, 10 mg/L, read-out: Actual Inhibition Rate E
  inhibition at 10 µg/mL: 34.4%
[2]; 96 h, 12.5 mg/L, read-out: Actual Inhibition Rate E
  inhibition at 12.5 µg/mL: 35.9%
[2]; 96 h, 16 mg/L, read-out: Actual Inhibition Rate E
  inhibition at 16 µg/mL: 38.5%
[2]; 96 h, 25 mg/L, read-out: Actual Inhibition Rate E
  inhibition at 25 µg/mL: 57.8%
[2]; 96 h, 33 mg/L, read-out: Actual Inhibition Rate E
  inhibition at 33 µg/mL: 61.5%
[2]; 96 h, 50 mg/L, read-out: Actual Inhibition Rate E
  inhibition at 50 µg/mL: 63.3%
[2]; 96 h, 100 mg/L, read-out: Actual Inhibition Rate E
  inhibition at 100 µg/mL: 68.5%
[2]; 96 h, 160 mg/L, read-out: Actual Inhibition Rate E
  inhibition at 160 µg/mL: 79.3%
